Values joined by “and” are separate entries in the source; they are usually repeats but may differ in a detail not shown here. Identical values can stand only once.
Assays:
AtPGDH3 = target: T1, AtPGDH3 (Arabidopsis thaliana, UniProt Q9LT69); assay: 3-PGA oxidation, NADH absorbance at […] nm; Hill fit; format: biochemical
T1 construct: gene PGDH3; mature enzyme, predicted chloroplast transit peptide removed; eXact tag cleaved (tag-free); E. coli BL21 CodonPlus(DE3)-RIL; homotetramer
T1 sequence (Q9LT69 44-588 limits assumed): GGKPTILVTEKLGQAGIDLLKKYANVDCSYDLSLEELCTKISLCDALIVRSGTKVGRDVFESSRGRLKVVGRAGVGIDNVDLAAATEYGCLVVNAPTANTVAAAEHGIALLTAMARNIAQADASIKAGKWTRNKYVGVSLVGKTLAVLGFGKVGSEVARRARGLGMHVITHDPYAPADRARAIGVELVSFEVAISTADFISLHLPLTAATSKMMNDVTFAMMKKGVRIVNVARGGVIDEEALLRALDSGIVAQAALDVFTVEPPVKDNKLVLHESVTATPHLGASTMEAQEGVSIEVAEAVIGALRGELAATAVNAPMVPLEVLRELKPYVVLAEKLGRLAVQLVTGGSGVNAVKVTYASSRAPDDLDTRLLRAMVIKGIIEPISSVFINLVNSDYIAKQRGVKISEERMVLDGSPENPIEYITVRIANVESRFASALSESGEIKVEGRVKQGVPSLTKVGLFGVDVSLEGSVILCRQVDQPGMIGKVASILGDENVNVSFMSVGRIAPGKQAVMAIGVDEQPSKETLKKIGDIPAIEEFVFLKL

AtPGDH1 = target: T2, AtPGDH1 (Arabidopsis thaliana, UniProt O49485); assay: 3-PGA oxidation, NADH absorbance at […] nm; Hill fit; format: biochemical
T2 construct: gene PGDH1; mature enzyme, predicted chloroplast transit peptide removed; eXact tag cleaved (tag-free); E. coli BL21 CodonPlus(DE3)-RIL; homotetramer
T2 sequence (O49485 59-603 limits assumed): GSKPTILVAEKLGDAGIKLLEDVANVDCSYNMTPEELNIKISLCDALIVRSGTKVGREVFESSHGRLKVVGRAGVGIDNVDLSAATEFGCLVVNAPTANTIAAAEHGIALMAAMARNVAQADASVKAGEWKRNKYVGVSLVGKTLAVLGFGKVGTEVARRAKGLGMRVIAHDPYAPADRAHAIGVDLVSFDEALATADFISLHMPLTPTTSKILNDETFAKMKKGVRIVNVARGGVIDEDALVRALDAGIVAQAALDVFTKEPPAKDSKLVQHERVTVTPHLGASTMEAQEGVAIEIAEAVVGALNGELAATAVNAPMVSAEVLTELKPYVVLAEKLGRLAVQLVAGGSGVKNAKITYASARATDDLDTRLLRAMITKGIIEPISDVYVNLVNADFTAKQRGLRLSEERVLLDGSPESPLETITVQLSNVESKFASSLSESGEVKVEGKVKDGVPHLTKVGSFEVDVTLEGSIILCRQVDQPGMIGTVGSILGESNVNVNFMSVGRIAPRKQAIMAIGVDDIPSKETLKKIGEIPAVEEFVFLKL

[1] = target: AtPGDH-N2/C1: chimera of the N-terminal half of AtPGDH2 and the C-terminal half of AtPGDH1 (A. thaliana); assay: SEC; HiLoad 26/600 Superdex 200 preparation grade column, flow rate 1 mL/min, 100 mM sodium phosphate buffer (pH 9.0); native molecular weight estimated from a standard curve of marker proteins; oligomer of the protein with itself
AtPGDH-N2/C1 = test system: T3, AtPGDH-N2/C1; assay: 3-PGA oxidation, NADH absorbance at […] nm; Hill fit; format: biochemical, Arabidopsis thaliana; details: cooperative, 10 mM 3-PGA, 1 mM NAD+, 0.1 M NaCl, pH 9.0, 25 °C
T3 construct: gene PGDH2; one fused polypeptide: N-terminal half (catalytic domain) of AtPGDH2 + C-terminal half (ASB and ACT domains) of AtPGDH1; tag-free, E. coli; homotetramer

AtPGDH-N1/C2 = test system: T4, AtPGDH-N1/C2; assay: 3-PGA oxidation, NADH absorbance at […] nm; Hill fit; format: biochemical, Arabidopsis thaliana; details: activator, cooperative; 10 mM 3-PGA, 1 mM NAD+, 0.1 M NaCl, pH 9.0, 25 °C
T4 construct: gene PGDH1; one fused polypeptide: N-terminal half (catalytic domain) of AtPGDH1 + C-terminal half (ASB and ACT domains) of AtPGDH2; tag-free, E. coli; mainly homotetramer, also multimers up to 20 subunits

[2] = target: the molecule itself; assay: SEC; HiLoad 26/600 Superdex 200 preparation grade column, flow rate 1 mL/min, 100 mM sodium phosphate buffer (pH 9.0); native molecular weight estimated from a standard curve of marker proteins; oligomer of the protein with itself
purified protein [3] = substrate: NC(=O)c1ccc[n+]([C@@H]2O[C@H](COP(=O)(O)OP(=O)(O)OC[C@H]3O[C@@H](n4cnc5c(N)ncnc54)[C@H](O)[C@@H]3O)[C@@H](O)[C@H]2O)c1; assay: purified protein; format: biochemical, Arabidopsis thaliana; details: 10 mM 3-PGA, 0.1 M NaCl, pH 9.0, 25 °C, varied: cofactor
purified protein [4] = substrate: O=C(O)[C@H](O)COP(=O)(O)O; assay: purified protein; format: biochemical, Arabidopsis thaliana; details: 1 mM NAD+, 0.1 M NaCl, pH 9.0, 25 °C

## N[C@@H](CCO)C(=O)O [L-homoserine]
AtPGDH3
  EC50: 9200 ± 300 µM
AtPGDH1
  EC50: 3000 ± 300 µM

## CC(C)[C@H](N)C(=O)O [L-valine]
AtPGDH3
  EC50: 2300 ± 200 µM
AtPGDH1
  EC50: 7100 ± 200 µM

## AtPGDH-N2/C1: chimera of the N-terminal half of AtPGDH2 and the C-terminal half of AtPGDH1 (enzyme)
[1]
  stoichiometry N: 4

## C[C@H](N)C(=O)O [L-alanine]
AtPGDH3
  EC50: 4900 ± 200 µM
AtPGDH-N2/C1; activator
  EC50: 2600 ± 100 µM
AtPGDH1
  EC50: 5300 ± 200 µM
AtPGDH-N1/C2
  EC50: 3700 ± 100 µM

## N[C@@H](CO)C(=O)O [L-serine]
AtPGDH3
  EC50: 1300 µM
AtPGDH-N2/C1; inhibitor
  EC50: 2700 ± 100 µM
AtPGDH1
  EC50: 6600 µM

## CSCC[C@H](N)C(=O)O [L-methionine]
AtPGDH3
  EC50: 2500 ± 100 µM
AtPGDH1
  EC50: 670 µM

## N[C@@H](CCS)C(=O)O [L-homocysteine]
AtPGDH3
  EC50: 69 µM
AtPGDH1
  EC50: 23 µM

B1: Arabidopsis thaliana 3-phosphoglycerate dehydrogenase 3 (AtPGDH3), recombinant, without the predicted transit peptide (enzyme, A. thaliana, UniProt Q9LT69 39-588, looked up)
chain: SSSGGGGKPTILVTEKLGQAGIDLLKKYANVDCSYDLSLEELCTKISLCDALIVRSGTKVGRDVFESSRGRLKVVGRAGVGIDNVDLAAATEYGCLVVNAPTANTVAAAEHGIALLTAMARNIAQADASIKAGKWTRNKYVGVSLVGKTLAVLGFGKVGSEVARRARGLGMHVITHDPYAPADRARAIGVELVSFEVAISTADFISLHLPLTAATSKMMNDVTFAMMKKGVRIVNVARGGVIDEEALLRALDSGIVAQAALDVFTVEPPVKDNKLVLHESVTATPHLGASTMEAQEGVSIEVAEAVIGALRGELAATAVNAPMVPLEVLRELKPYVVLAEKLGRLAVQLVTGGSGVNAVKVTYASSRAPDDLDTRLLRAMVIKGIIEPISSVFINLVNSDYIAKQRGVKISEERMVLDGSPENPIEYITVRIANVESRFASALSESGEIKVEGRVKQGVPSLTKVGLFGVDVSLEGSVILCRQVDQPGMIGKVASILGDENVNVSFMSVGRIAPGKQAVMAIGVDEQPSKETLKKIGDIPAIEEFVFLKL
notes: region that corresponds with the mature enzyme, the chloroplast transit peptide having been predicted by comparison with MtPGDH; theoretical molecular weight 57.9 kDa; also called At3g19480
[2]
  stoichiometry N: 4

B2: Arabidopsis thaliana 3-phosphoglycerate dehydrogenase 2 (AtPGDH2), recombinant, without the predicted transit peptide (enzyme, A. thaliana, UniProt O04130-1 50-624, looked up)
chain: AALKTVEQTTLTEDNRFSTVGSDSDEYNPTLPKPRILVTEKLGEAGVNLLREFGDVDCSYDLSPEDLKKKVAESDALIVRSGTKVTREVFEAAKGRLKVVGRAGVGIDNVDLQAATEHGCLVVNAPTANTVAAAEHGIALLASMARNVAQADASIKAGKWERSKYVGVSLVGKTLAVMGFGKVGTEVARRAKGLGMTVISHDPYAPADRARALGVDLVSFDQAISTADFVSLHMPLTPATKKVFNDETFSKMKKGVRLINVARGGVIDEDALVRALDAGIVAQAALDVFCEEPPSKDSRLIQHENVTVTPHLGASTKEAQEGVAIEIAEAVAGALKGELSATAVNAPMVAPEVLSELTPYIVLAEKLGRLAVQLASGGKGVQSIRVVYRSARDRDDLDTRLLRAMITKGIIEPISDSYVNLVNADFIAKQKGLRISEERMVVDSSPEYPVDSIQVQILNVESNFAGAVSDAGDISIEGKVKYGVPHLTCVGSFGVDVSLEGNLILCRQVDQPGMIGQVGNILGEQNVNVNFMSVGRTVLRKQAIMAIGVDEEPDNKTLERIGGVSAIEEFVFLKL
notes: AtPGDH2 (At1g17745), A. thaliana; region that corresponds with the mature enzyme, the chloroplast transit peptide having been predicted by comparison with MtPGDH; theoretical molecular weight 57.6 kDa; Found as an equilibrium of homooctamers and homotetramers; also called At1g17745
[2]
  stoichiometry N: 8 and 4

B3: AtPGDH1 (Arabidopsis thaliana) (protein)
chain: T2 sequence (O49485 59-603 limits assumed)
notes: mature enzyme, predicted chloroplast transit peptide removed; eXact tag cleaved (tag-free); E. coli BL21 CodonPlus(DE3)-RIL; homotetramer
Purified protein [3]
  Km: 50 ± 2 µM
  kcat: 15 s⁻¹
Purified protein [4]
  Km: 500 ± 50 µM
  kcat: 15 s⁻¹

B4: AtPGDH2 (Arabidopsis thaliana) (protein)
chain: LPKPRILVTEKLGEAGVNLLREFGDVDCSYDLSPEDLKKKVAESDALIVRSGTKVTREVFEAAKGRLKVVGRAGVGIDNVDLQAATEHGCLVVNAPTANTVAAAEHGIALLASMARNVAQADASIKAGKWERSKYVGVSLVGKTLAVMGFGKVGTEVARRAKGLGMTVISHDPYAPADRARALGVDLVSFDQAISTADFVSLHMPLTPATKKVFNDETFSKMKKGVRLINVARGGVIDEDALVRALDAGIVAQAALDVFCEEPPSKDSRLIQHENVTVTPHLGASTKEAQEGVAIEIAEAVAGALKGELSATAVNAPMVAPEVLSELTPYIVLAEKLGRLAVQLASGGKGVQSIRVVYRSARDRDDLDTRLLRAMITKGIIEPISDSYVNLVNADFIAKQKGLRISEERMVVDSSPEYPVDSIQVQILNVESNFAGAVSDAGDISIEGKVKYGVPHLTCVGSFGVDVSLEGNLILCRQVDQPGMIGQVGNILGEQNVNVNFMSVGRTVLRKQAIMAIGVDEEPDNKTLERIGGVSAIEEFVFLKL
notes: mature enzyme, predicted chloroplast transit peptide removed; eXact tag cleaved (tag-free); E. coli BL21 CodonPlus(DE3)-RIL; equilibrium of homooctamers and homotetramers
Purified protein [3]
  Km: 123 ± 7 µM
  kcat: 16 s⁻¹
Purified protein [4]
  Km: 1030 ± 70 µM
  kcat: 16 s⁻¹

B5: AtPGDH3 (Arabidopsis thaliana) (protein)
chain: T1 sequence (Q9LT69 44-588 limits assumed)
notes: as for B3
Purified protein [4]
  Km: 770 ± 90 µM
  kcat: 17 s⁻¹

B6: Arabidopsis thaliana 3-phosphoglycerate dehydrogenase 1 (AtPGDH1), recombinant, without the predicted transit peptide (enzyme, A. thaliana, UniProt O49485 55-603, looked up)
chain: STGDGSKPTILVAEKLGDAGIKLLEDVANVDCSYNMTPEELNIKISLCDALIVRSGTKVGREVFESSHGRLKVVGRAGVGIDNVDLSAATEFGCLVVNAPTANTIAAAEHGIALMAAMARNVAQADASVKAGEWKRNKYVGVSLVGKTLAVLGFGKVGTEVARRAKGLGMRVIAHDPYAPADRAHAIGVDLVSFDEALATADFISLHMPLTPTTSKILNDETFAKMKKGVRIVNVARGGVIDEDALVRALDAGIVAQAALDVFTKEPPAKDSKLVQHERVTVTPHLGASTMEAQEGVAIEIAEAVVGALNGELAATAVNAPMVSAEVLTELKPYVVLAEKLGRLAVQLVAGGSGVKNAKITYASARATDDLDTRLLRAMITKGIIEPISDVYVNLVNADFTAKQRGLRLSEERVLLDGSPESPLETITVQLSNVESKFASSLSESGEVKVEGKVKDGVPHLTKVGSFEVDVTLEGSIILCRQVDQPGMIGTVGSILGESNVNVNFMSVGRIAPRKQAIMAIGVDDIPSKETLKKIGEIPAVEEFVFLKL
notes: AtPGDH1 (At4g34200), A. thaliana; region that corresponds with the mature enzyme, the chloroplast transit peptide having been predicted by comparison with MtPGDH; theoretical molecular weight 57.5 kDa; The start of the 'mature' region is a prediction of the authors from an alignment with MtPGDH; also called At4g34200
[2]
  stoichiometry N: 4
